Source: patent US11667809B2, “Adhesion promoters and compositions for containers and other articles” (SWIMC LLC, priority 2017, dated 2023)
Where two headings read alike, the source gives them in different places.

Columns and labels:
human estrogen receptor [1] = target: T1, human estrogen receptor (Homo sapiens, UniProt P03372)
T1 sequence (P03372 1-595): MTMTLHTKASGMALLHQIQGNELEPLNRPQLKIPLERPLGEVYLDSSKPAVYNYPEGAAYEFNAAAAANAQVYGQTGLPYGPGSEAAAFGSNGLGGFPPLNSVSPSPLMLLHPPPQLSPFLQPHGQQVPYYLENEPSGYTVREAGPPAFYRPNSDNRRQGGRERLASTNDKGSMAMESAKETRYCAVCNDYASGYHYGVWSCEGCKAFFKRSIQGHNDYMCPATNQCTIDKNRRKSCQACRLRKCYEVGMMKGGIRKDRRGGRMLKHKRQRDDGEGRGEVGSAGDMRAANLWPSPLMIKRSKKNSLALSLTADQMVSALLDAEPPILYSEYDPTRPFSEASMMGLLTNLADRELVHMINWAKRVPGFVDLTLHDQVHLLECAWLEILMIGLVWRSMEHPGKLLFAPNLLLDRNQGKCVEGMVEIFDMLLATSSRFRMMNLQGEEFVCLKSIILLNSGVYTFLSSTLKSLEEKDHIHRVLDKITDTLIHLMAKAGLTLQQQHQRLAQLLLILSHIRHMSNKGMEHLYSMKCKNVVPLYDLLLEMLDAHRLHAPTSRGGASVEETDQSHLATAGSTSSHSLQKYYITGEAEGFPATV
From the text: (§1) The MCF-7 assay uses MCF-7, clone WS8, cells to measure whether and to what extent a substance induces cell proliferation via estrogen receptor (ER)-mediated pathways.

human estrogen receptor [2] = target: T1, human estrogen receptor; assay: in vitro estrogenic activity assay correlated to the MCF-7 cell proliferation assay; settings: suitable in vitro assay whose results are directly correlated to the MCF-7 assay
From the text: as §1

Compound	estrogenic activity (human estrogen receptor [1])	estrogenic activity (human estrogen receptor [2])
CC(C)(C)c1cc(Cc2cc(C(C)(C)C)c(O)c(C(C)(C)C)c2)cc(C(C)(C)C)c1O [4,4′-methylenebis(2,6-di-t-butylphenol)]	do not exhibit appreciable estrogenic activity	–
CC(C)(C)c1cc(O)c(C(C)(C)C)cc1O [2,5-di-t-butylhydroquinone]	do not exhibit appreciable estrogenic activity	–
Cc1cc(Cc2cc(C)cc(C(C)(C)C)c2O)c(O)c(C(C)(C)C)c1 [2,2′-methylenebis(4-methyl-6-t-butylphenol)]	do not exhibit appreciable estrogenic activity	–
Cc1cc(Cc2cc(C)c(O)c(C)c2)cc(C)c1O [4,4′-methylenebis(2,6-dimethylphenol)]	–	do not exhibit appreciable estrogenic activity
CCCC(c1cc(C(C)(C)C)c(O)cc1C)c1cc(C(C)(C)C)c(O)cc1C [4,4′butylidenebis(2-t-butyl-5-methylphenol)]	–	do not exhibit appreciable estrogenic activity
